From the Kinase Knowledgebase extract (Sharma et al. 2016)

Target: PIK3CD (Human) (UniProt O00329)
Test: Enzyme Assay

PIK3CD (Human), sequence (O00329 whole entry, looked up): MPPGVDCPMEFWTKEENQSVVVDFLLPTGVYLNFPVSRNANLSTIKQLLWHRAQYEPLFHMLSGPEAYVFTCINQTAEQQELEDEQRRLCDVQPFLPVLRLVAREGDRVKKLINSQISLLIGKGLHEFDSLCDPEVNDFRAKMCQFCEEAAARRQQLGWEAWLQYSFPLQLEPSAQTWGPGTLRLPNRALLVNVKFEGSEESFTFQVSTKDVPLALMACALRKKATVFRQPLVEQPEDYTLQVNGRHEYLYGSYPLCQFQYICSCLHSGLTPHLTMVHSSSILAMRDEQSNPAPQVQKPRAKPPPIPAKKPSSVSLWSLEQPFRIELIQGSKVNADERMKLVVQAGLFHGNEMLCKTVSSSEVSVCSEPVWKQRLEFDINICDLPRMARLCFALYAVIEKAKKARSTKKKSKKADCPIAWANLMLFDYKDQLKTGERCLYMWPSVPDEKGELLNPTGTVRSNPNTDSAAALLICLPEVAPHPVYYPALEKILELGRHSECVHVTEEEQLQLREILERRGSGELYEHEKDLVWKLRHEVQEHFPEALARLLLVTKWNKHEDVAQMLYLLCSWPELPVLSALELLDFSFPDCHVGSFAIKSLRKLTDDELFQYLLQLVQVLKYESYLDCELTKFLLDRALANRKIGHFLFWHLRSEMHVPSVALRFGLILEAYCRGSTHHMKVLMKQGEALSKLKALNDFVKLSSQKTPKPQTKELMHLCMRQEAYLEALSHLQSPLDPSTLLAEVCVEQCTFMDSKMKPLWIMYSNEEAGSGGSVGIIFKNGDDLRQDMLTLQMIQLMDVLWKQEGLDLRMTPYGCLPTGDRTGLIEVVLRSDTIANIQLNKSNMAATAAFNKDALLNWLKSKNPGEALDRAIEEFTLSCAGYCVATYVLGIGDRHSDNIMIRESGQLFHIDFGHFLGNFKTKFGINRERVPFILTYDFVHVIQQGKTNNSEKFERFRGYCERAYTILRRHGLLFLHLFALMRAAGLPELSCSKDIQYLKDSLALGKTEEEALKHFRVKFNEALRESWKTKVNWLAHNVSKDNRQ

Compound	IC50 [nM]
C[C@H](Nc1nc(N)nc(N)c1C#N)c1nc2cccc(Cl)c2c(=O)n1C[C@H]1CCCNC1	2
C[C@H](Nc1ncnc(N)c1C#N)c1nc2cccc(Cl)c2c(=O)n1CCN1CCN(C)CC1	11
C[C@H](Nc1nc(N)nc(N)c1C#N)c1nc2cccc(Cl)c2c(=O)n1C[C@@H]1CCCNC1	3

Target: PIK3CG (human) (UniProt P48736)
Test: Enzyme Assay

PIK3CG (human), sequence (P48736 whole entry, looked up): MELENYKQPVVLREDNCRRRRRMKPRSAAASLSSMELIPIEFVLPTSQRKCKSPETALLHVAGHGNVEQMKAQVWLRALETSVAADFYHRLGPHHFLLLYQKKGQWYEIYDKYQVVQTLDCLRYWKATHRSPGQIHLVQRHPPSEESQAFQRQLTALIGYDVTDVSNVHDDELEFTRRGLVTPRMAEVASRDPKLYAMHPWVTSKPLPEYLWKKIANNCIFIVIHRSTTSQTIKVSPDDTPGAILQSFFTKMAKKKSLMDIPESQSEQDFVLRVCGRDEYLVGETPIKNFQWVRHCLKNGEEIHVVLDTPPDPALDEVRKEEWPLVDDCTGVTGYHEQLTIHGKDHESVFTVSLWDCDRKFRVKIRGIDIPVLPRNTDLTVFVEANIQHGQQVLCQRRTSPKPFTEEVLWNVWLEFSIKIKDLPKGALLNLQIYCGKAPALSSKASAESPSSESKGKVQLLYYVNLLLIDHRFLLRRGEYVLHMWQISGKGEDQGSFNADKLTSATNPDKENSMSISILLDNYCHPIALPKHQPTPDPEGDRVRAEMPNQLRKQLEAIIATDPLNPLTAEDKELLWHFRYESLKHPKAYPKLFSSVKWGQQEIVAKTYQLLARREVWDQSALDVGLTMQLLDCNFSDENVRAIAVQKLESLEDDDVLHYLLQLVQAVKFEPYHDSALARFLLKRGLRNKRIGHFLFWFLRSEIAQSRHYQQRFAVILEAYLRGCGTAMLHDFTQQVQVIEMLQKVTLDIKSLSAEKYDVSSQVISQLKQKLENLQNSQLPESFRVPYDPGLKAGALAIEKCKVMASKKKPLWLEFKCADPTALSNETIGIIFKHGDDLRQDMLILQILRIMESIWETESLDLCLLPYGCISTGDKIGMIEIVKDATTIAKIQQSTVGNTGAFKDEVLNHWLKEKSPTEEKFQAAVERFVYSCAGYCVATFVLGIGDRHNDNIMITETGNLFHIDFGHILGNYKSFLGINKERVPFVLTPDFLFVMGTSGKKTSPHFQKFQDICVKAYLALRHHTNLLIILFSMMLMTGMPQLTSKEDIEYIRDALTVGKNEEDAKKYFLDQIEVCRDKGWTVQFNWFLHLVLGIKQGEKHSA

Compound	IC50 [µM]
Cc1cccc2nc([C@H](C)Nc3ncnc(N)c3C#N)n(CCCN)c(=O)c12	≥ 10
C[C@H](Nc1ncnc(N)c1C#N)c1nc2cccc(Cl)c2c(=O)n1N(C)CCN	≥ 10
CNCCCn1c([C@H](C)Nc2ncnc(N)c2C#N)nc2cccc(Cl)c2c1=O	≥ 10
CC[C@H](Nc1ncnc(N)c1C#N)c1nc2cccc(Cl)c2c(=O)n1CCCN	≥ 10
C[C@H](Nc1ncnc(N)c1C#N)c1nc2cccc(Cl)c2c(=O)n1[C@H]1C[C@H](N)C1	≥ 10
CC(CCN)n1c([C@H](C)Nc2ncnc(N)c2C#N)nc2cccc(Cl)c2c1=O (stereo not given in full)	≥ 10
C[C@H](Nc1nc(N)nc(N)c1C#N)c1nc2cccc(Cl)c2c(=O)n1C[C@H]1CCCNC1	3.2
C[C@H](Nc1nc(N)nc(N)c1C#N)c1nc2cccc(Cl)c2c(=O)n1N(CCN)Cc1ccccc1	≥ 10
C[C@H](Nc1ncnc(N)c1C#N)c1nc2cccc(Cl)c2c(=O)n1CC1CCNC1 (stereo not given in full)	≥ 10
C[C@H](Nc1ncnc2scnc12)c1nc2cccc(Cl)c2c(=O)n1CCC(C)(C)N	≥ 10
C[C@H](Nc1ncnc(N)c1C#N)c1nc2cccc(Cl)c2c(=O)n1CCCN1CCN(C)CC1	≥ 10
C[C@H](Nc1ncnc(N)c1C#N)c1nc2cccc(Cl)c2c(=O)n1CCCN(C)C	≥ 10
CC(CN)Cn1c([C@H](C)Nc2ncnc(N)c2C#N)nc2cccc(Cl)c2c1=O (stereo not given in full)	≥ 10
C[C@H](Nc1ncnc(N)c1C#N)c1nc2cccc(Cl)c2c(=O)n1CC1CCCNC1 (stereo not given in full)	≥ 10
C[C@H](Nc1ncnc(N)c1C#N)c1nc2cccc(Cl)c2c(=O)n1CC1CCCCN1 (stereo not given in full)	≥ 10
C[C@H](Nc1ncnc(N)c1C#N)c1nc2cccc(Cl)c2c(=O)n1CCCCN	≥ 10
N#Cc1c(N)nc(N)nc1N[C@@H](c1ccccc1)c1nc2cccc(Cl)c2c(=O)n1CCCN	≥ 10
C[C@H](Nc1ncnc(N)c1C#N)c1nc2cccc(Cl)c2c(=O)n1CCN1CCCC1	≥ 10
CC(CN)n1c([C@H](C)Nc2ncnc(N)c2C#N)nc2cccc(Cl)c2c1=O (stereo not given in full)	≥ 10
C[C@H](Nc1ncnn2ccnc12)c1nc2cccc(Cl)c2c(=O)n1CCCN	≥ 10
NCCCn1c([C@@H](Nc2ncnn3ccnc23)C2CC2)nc2cccc(Cl)c2c1=O	≥ 10
C[C@H](Nc1ncnc(N)c1C#N)c1nc2cccc(Cl)c2c(=O)n1C[C@@H](O)CO	≥ 10

Compound	IC50 [µM]
C[C@H](Nc1ncnc(N)c1C#N)c1nc2cccc(Cl)c2c(=O)n1CCN	≥ 10
C[C@H](Nc1nc(N)nc(N)c1C#N)c1nc2cccc(Cl)c2c(=O)n1CCN1CCCC1	≥ 10
C[C@H](NC(=O)c1nccnc1N)c1nc2cccc(Cl)c2c(=O)n1CCCN	≥ 10
C[C@H](Nc1nc(N)nc(N)c1Cl)c1nc2cccc(Cl)c2c(=O)n1CCCN	≥ 10
N#Cc1c(N)ncnc1N[C@H](c1nc2cccc(Cl)c2c(=O)n1CCCN)C1CC1	≥ 10
C[C@H](Nc1ncnc(N)c1C#N)c1nc2cccc(Cl)c2c(=O)n1N(CCN)Cc1ccccc1	≥ 10
C[C@H](Nc1ncnc(N)c1C#N)c1nc2cccc(Cl)c2c(=O)n1CCCNCc1ccccc1	≥ 10
C[C@H](Nc1ncnc(N)c1C#N)c1nc2cccc(Cl)c2c(=O)n1CCN1CCN(C)CC1	≥ 10
Nc1nc(N)c(Cl)c(N[C@H](c2nc3c(Cl)ccc(Cl)c3c(=O)n2[C@H]2C[C@@H](O)C2)C2CC2)n1	≥ 10
C[C@H](Nc1nc(N)nc(N)c1C#N)c1nc2cccc(Cl)c2c(=O)n1C[C@@H]1CCCNC1	1.3
C[C@H](Nc1ncnc(N)c1C#N)c1nc2cccc(Cl)c2c(=O)n1CC1CCCN1 (stereo not given in full)	≥ 10
C[C@H](Nc1ncnc2[nH]cnc12)c1nc2cccc(Cl)c2c(=O)n1CCCN1CCOCC1	≥ 10
NCCCn1c([C@@H](Nc2nc(N)nc(N)c2Cl)C2CC2)nc2cccc(Cl)c2c1=O	≥ 10
COCCCn1c([C@H](C)Nc2ncnc(N)c2C#N)nc2c(Cl)ccc(Cl)c2c1=O	> 10
C[C@H](Nc1ncnc(N)c1C#N)c1nc2cccc(Cl)c2c(=O)n1CCCN1CCCCC1	≥ 10
C[C@H](Nc1ncnc(N)c1C#N)c1nc2cccc(Cl)c2c(=O)n1CCC(C)(C)N	≥ 10
Cc1ncnc(N[C@@H](C)c2nc3cccc(Cl)c3c(=O)n2CCCN)c1C#N	≥ 10
C[C@H](Nc1ncnc(N)c1C#N)c1nc2cccc(Cl)c2c(=O)n1CC1CNCCO1 (stereo not given in full)	≥ 10
C[C@H](Nc1ncnc(N)c1Cl)c1nc2cccc(Cl)c2c(=O)n1CCCN	≥ 10
COCCCn1c([C@H](C)Nc2ncnc(N)c2C#N)nc2c(F)ccc(F)c2c1=O	≥ 10
CC(C)C[C@H](Nc1ncnc(N)c1C#N)c1nc2cccc(Cl)c2c(=O)n1CCCN	≥ 10
C[C@H](Nc1ncnc(N)c1C#N)c1nc2cccc(Cl)c2c(=O)n1CC1CCNCC1	≥ 10

Target: PIK3CB (Human) (UniProt P42338)
Sequence (P42338 whole entry, looked up): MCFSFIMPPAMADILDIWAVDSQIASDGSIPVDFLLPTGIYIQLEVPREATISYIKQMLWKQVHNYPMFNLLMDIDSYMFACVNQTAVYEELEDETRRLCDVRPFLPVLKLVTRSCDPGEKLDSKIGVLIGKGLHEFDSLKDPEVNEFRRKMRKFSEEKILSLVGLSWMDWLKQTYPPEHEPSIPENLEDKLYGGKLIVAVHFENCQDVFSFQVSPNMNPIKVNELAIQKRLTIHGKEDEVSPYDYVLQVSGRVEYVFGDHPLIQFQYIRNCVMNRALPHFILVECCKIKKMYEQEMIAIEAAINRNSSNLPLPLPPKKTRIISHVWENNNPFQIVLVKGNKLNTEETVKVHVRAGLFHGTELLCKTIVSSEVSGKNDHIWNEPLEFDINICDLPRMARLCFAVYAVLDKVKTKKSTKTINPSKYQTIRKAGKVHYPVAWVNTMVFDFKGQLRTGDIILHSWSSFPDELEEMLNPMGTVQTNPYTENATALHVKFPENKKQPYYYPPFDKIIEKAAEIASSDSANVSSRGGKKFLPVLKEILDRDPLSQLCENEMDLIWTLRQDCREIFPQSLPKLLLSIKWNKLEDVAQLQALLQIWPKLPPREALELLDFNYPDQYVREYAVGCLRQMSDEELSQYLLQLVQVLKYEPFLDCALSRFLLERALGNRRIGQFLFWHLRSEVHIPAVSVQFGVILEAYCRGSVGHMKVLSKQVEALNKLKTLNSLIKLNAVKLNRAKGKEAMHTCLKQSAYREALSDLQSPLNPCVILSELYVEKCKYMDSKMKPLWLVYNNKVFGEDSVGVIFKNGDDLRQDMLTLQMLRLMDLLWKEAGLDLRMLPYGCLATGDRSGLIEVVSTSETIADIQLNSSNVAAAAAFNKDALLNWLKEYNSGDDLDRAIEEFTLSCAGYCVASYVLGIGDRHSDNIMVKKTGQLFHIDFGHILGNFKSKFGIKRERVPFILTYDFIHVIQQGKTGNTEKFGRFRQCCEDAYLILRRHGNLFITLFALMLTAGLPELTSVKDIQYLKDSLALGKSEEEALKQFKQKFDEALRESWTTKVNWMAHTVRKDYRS
Test: Enzyme Assay

Compound	IC50 [nM]
C[C@H](Nc1nc(N)nc(N)c1C#N)c1nc2cccc(Cl)c2c(=O)n1C[C@H]1CCCNC1	88
C[C@H](Nc1ncnc(N)c1C#N)c1nc2cccc(Cl)c2c(=O)n1CCN1CCN(C)CC1	340
C[C@H](Nc1nc(N)nc(N)c1C#N)c1nc2cccc(Cl)c2c(=O)n1C[C@@H]1CCCNC1	79
